System: APOE*3Leiden mice
Experiment: Effects on lipid metabolism in vivo, APOE*3Leiden mice on Western-type diet
Details: female heterozygous APOE*3Leiden mice, oral admix to Western-type diet, plasma after 4 hour fast, delta = level at t=0 minus level at t=3, doses 565 (Group 2), 497 (Group 3), 1 (Group 4) mg/kg bw/d
Method: The invented compositions were tested in an animal model as described below.
Female heterozygous APOE*3Leiden mice was used, and housed during the experiment in macrolon cages (three or four mice per cage), in clean-conventional animal rooms (relative humidity 50-60%, temperature ˜21° C., light cycle 7 am to 7 pm). Individual animals were marked by ear punch-holes. Mice were supplied with food and acidified tap water ad libitum.
The mice received a semi-synthetic modified Western-type diet (WTD) as described by Nishina et al (J Lipid Res 1990; 31: 859), containing cholesterol (0.25% w/w, final concentration) and 15% cacaobutter.
All test compounds were administered orally as admix to the Western-type diet. The lyophilized diet chunks were stored in vacuum bags in the dark in an alarm-secured −20° C. room. The diets on the cages of the mice were changed twice a week.
APOE*3Leiden mice were put on a semi-synthetic Western-type diet (WTD, 15% cocoa butter, 40% sucrose and 0.25% cholesterol; all w/w). After a 4 weeks run-in period low-responder mice were removed from the study and the remaining mice were sub-divided into five groups of 10 mice each, matched for plasma cholesterol, triglycerides, free fatty acids and age (t=0) […]
After 3 weeks of treatment (t=3 weeks) blood samples were taken after 4 hour-fast period and plasma total cholesterol (TC), total triglycerides (TG) were measured. […]

## CC(C)OC(=O)C(C)(C)Oc1ccc(C(=O)c2ccc(Cl)cc2)cc1 [Group 4, Fenofibrate]
  Delta cholesterol plasma levels (delta TC) after treatment period of 3 weeks, Mean (delta TC): 4.71
  Delta triglyceride plasma levels (delta TG) after treatment period of 3 weeks, Mean (delta TG): 1.16
